Results: paper PMC5882690, “Mechanical characteristics of beta sheet-forming peptide hydrogels are dependent on peptide sequence, concentration and buffer composition” (Royal Society Open Science, 2018)
Where a SMILES comes first, the peptide text is derived from it.

Columns and labels:
[1] = molecular target: T1, human neutrophil elastase (Homo sapiens, UniProt P08246); assay: SAP hydrogel degradation by human neutrophil elastase; assay type: in vitro ADME; conditions: human neutrophil elastase 100 µg ml^-1 (86 units ml^-1) in PBS, 37°C, 5% CO2, 20 mg ml^-1 P11-4, 15 mg ml^-1 others, Qubit Protein Assay, mean ± SD, n = 3
T1 construct: purchased Innovative Research, USA
T1 sequence (P08246 30-267): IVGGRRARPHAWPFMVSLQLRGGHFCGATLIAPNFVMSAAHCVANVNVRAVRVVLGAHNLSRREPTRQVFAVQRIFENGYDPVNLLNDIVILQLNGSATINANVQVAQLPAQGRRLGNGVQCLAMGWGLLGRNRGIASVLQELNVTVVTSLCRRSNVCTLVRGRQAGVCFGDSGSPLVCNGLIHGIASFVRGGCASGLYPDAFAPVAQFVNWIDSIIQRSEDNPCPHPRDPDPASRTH
Protocol: (§1) SAP hydrogel dissolution and degradation properties of the peptides in the presence and absence of neutrophilic elastase and microorganisms were measured by determining the peptide content of the supernatant. Therefore, SAPs were assembled in PBS at concentrations of 20 mg ml^−1 for P11-4 and 15 mg ml^−1 for P11-8, P11-13/14 and P11-28/29. The assay was performed in a 96-well plate with gel volumes of 100 µl well^−1. 86 units ml^−1 elastase (Innovative Research, USA) (100 µg ml^−1) were added to the assembled peptides in PBS solution. After 24 h incubation at 37°C and 5% CO2, 10 µl of the supernatant was sterilely removed after 24 and 168 h and measured indirectly by monomeric peptide concentration in the supernatant using the Qubit® Protein Assay (Q33211; Thermo Fisher; fluorescence at 485/590 nm) and transferred back for the remainder of the experiment allowing peptide hydrogel degradation measurement without disturbing the hydrogel to buffer fluid balance. The measurements are based on the fact that degraded peptides cause disassembly of the fibrils, as assembly rules are no longer given, resulting in an increase in monomeric SAP in solution. SAP concentrations were calculated based on respective peptide standard curves. For data analysis, SAP concentrations measured in the supernatant were calculated as a percentage of the specific starting concentrations of each peptide system. Statistical analysis was done using a two-way ANOVA followed by Sidak's multiple comparison test.

[2] = SAP hydrogel dissolution in PBS or TYSB medium (peptide content of supernatant); assay type: physicochemical; conditions: 37°C, 20 mg ml^-1 P11-4, 15 mg ml^-1 others, Qubit Protein Assay, mean ± SD, n = 3
Protocol: as §1
The stability of the hydrogels versus bacterial degradation was tested by the exposure to the bacterial strains Streptococcus mutans (S. mutans), Pseudomonas aeruginosa (P. aeruginosa) and Staphylococcus aureus (S. aureus; all from Leibniz-Institut DSMZ GmbH). Therefore, the bacterial strains were applied (10^6 CFU ml^−1) on the top of each gel (20 mg ml^−1 for P11-4 and 15 mg ml^−1 for P11-8, P11-13/14 and P11-28/29) in their respective media (Neurobasal medium for P. aeruginosa (Thermo Fisher), Tryptic Soy Broth (TYSB) medium for S. mutans and S. aureus). After 1 and 7 days of incubation at 37°C, 10 µl of each supernatant was analysed subsequent to centrifugation of the samples using the Qubit® Protein Assay. Calculations were performed as described previously for the elastase degradation study. Statistical analysis was performed with Graphpad Prism version 6.0 using a two-way ANOVA followed by Dunnett's multiple comparison test.

With `CC(=O)N[C@@H](CCC(N)=O)C(=O)N[C@@H](CCC(N)=O)C(=O)N[C@@H](CCCNC(=N)N)C(=O)N[C@@H](Cc1ccccc1)C(=O)N[C@@H](CCC(=O)O)C(=O)N[C@@H](Cc1c[nH]c2ccccc12)C(=O)N[C@@H](CCC(=O)O)C(=O)N[C@@H](Cc1ccccc1)C(=O)N[C@@H](CCC(=O)O)C(=O)N[C@@H](CCC(N)=O)C(=O)N[C@@H](CCC(N)=O)C(N)=O` [P11-4, CH3CO-QQRFEWEFEQQ-NH2] (Ac-QQRFEWEFEQQ-NH2) the “relative peptide amount in supernatant (% of peptide starting concentration)” value ([1]; 1 d) was 14.7± 2.8%, the “relative peptide amount in supernatant (% of peptide starting concentration)” value ([1]; 7 d) was 12.8± 5.8% and the “relative peptide amount in supernatant (% of peptide starting concentration)” value ([2]; Medium (TYSB), 1 d) was 0.4± 0.1%. The “relative peptide amount in supernatant (% of peptide starting concentration)” value ([2]; Medium (TYSB), 7 d) was 4.6± 2.5%, the “relative peptide amount in supernatant (% of peptide starting concentration)” value ([2]; PBS, 1 d, gel assembled in PBS, 100 µl, fluorescence 485/590 nm) was 10.6± 5.7% and the “relative peptide amount in supernatant (% of peptide starting concentration)” value ([2]; PBS, 7 d, gel assembled in PBS, 100 µl, fluorescence 485/590 nm) was 9.4± 4.4%.
